Measured values reported in PMC11378298 (ACS Chemical Neuroscience, 2024).
“And” between values parts separate entries of the source, which are not always exact repeats. Identical values can stand only once.

Tests used:
[1] = Cytotoxicity in HT-22 cells (PrestoBlue); settings: mouse, HT-22 hippocampal neuronal cells
Procedure: (§1) The compounds were tested at 5 concentrations (0.1, 1, 10, 50, and 100 μM).
Mouse Hippocampal Neuronal Cell Line (HT-22) was a generous gift from Dr Bartosz Pomierny of the Department of Biochemical Toxicology, Jagiellonian University Medical College, Krakow, Poland. Cells were cultured in Dulbecco’s modified Eagle’s Medium—high glucose (DMEM, Glutamax Thermo Fisher) supplemented with 10% heat-inactivated fetal bovine serum (Thermo Fisher), 100 IU/mL penicillin (Merck) and 100 μg/mL streptomycin (Merck). Cells were cultured in flasks (area 175 cm^2, Nunc), and incubated at 37 °C, 5% CO2. For the measurement of cell viability and neuroprotective effect against okadaic acid cells were placed in a 96-well culture plate (2 × 10^4 cells per well, Falcon). Before the tests, cells were grown for 24 h in the incubator (37 °C, 5% CO2).
(§2) Cell viability was evaluated using the PrestoBlue reagent (ThermoFisher), according to the manufacturer’s procedures.[87] Following 24 h of incubation with the tested molecule, PrestoBlue reagent was added to a microplate well in an amount equal to one-tenth of the remaining medium volume. The resulting mixture was incubated for 15 min at 37 °C, and the fluorescence intensity (EX 530 nm; EM 580 nm) was measured in the plate reader POLARstar Omega, (BMG Labtech).

[2] = Cytotoxicity in BV-2 cells (PrestoBlue); settings: mouse, BV-2 microglial cells
Procedure: as §1
Mouse microglial cells (BV-2) were a generous gift from Professor Bozena Kaminska-Kaczmarek of the Laboratory of Molecular Neurobiology, Neurobiology Center, Nencki Institute of Experimental Biology, Polish Academy of Sciences, Warsaw, Poland. Cells were cultured in Dulbecco’s modified Eagle’s Medium-high glucose (DMEM, Glutamax Thermo Fisher) supplemented with 10% heat-inactivated fetal bovine serum (Thermo Fisher), 100 IU/mL penicillin (Merck) and 100 μg/mL streptomycin (Merck). Cells were cultured in flasks (area 175 cm^2, Nunc), and incubated at 37 °C, 5% CO2. To evaluate the level of NO, IL-6, and TNF-α and the effectiveness of the compounds tested, BV-2 microglia cells were cultured in a 96-well culture plate (5 × 10^4 cells per well, Falcon). For the measurement of cell viability and cell membrane damage, cells were placed in a 96-well culture plate (2 × 10^4 cells per well, Falcon). Before the tests, cells were grown for 24 h in the incubator (37 °C, 5% CO2).
as §2

HT-22 cells = experiment: Okadaic acid-induced hyperphosphorylation model, cell viability; type: cell-based, mouse; settings: for increase in cells' viability after okadaic acid: okadaic acid 400 nM 3 h, viability after 24 h
Procedure: Thus, it is used in a cell model of hyperphosphorylated tau-induced neurodegeneration.[53],[54] […] The test was performed on the HT-22 cell line treated with okadaic acid at the concentration of 400 nM and the compounds at the concentration of 0.1, 1, and 10 μM. Cell viability was measured by the PrestoBlue cell viability reagent.
Cell viability was determined by Presto Blue assay after 24 h. (B) Effect of compounds 11, 34, and 36 (0.1, 1, 10 μM) on NO-release (%) in LPS-treated (100 ng/mL) BV-2 cell line. NO-release was measured using a fluorometric assay with 2,3-diaminonaphthalene (DAN). (C, D) Effects of compounds 11 and 36 (0.1, 1, 10 μM) on IL-6 and TNF-α release in LPS-treated (100 ng/mL) BV-2 cell line. The IL-6 and TNF-α levels were measured using LANCE Ultra TR-FRET Detection Kit (PerkinElmer). Statistical analysis was performed using GraphPad Prism 9.0.0. All values are expressed as mean with SD. Differences among groups were evaluated by one-way ANOVA followed by posthoc analysis (Dunnett’s multiple comparison tests) vs. control group (LPS on BV-2 cells and okadaic acid on HT-22 cells) and were considered statistically significant if p < 0.05 (*p < 0.05, **p < 0.01, ***p < 0.001, and ****p < 0.0001).
HT-22 cells were treated with okadaic acid (Merck): 400 nM for 3 h. After this time, the 10, 1, and 0.1 μM of tested compounds or DMSO were added and incubated in the aseptic condition (37 °C, 5% CO2). Cell viability was determined by Presto Blue assay after 24 h.

[3] = human liver microsomes; for % of the compound remaining after 2 h of incubation: 2 h (120 min), 37 °C
Procedure: The primary site of drug metabolism in humans is the liver. Therefore, we used human liver microsomes (HLM) to determine the metabolic stability of selected compounds (Table 3). The compounds were incubated with HLMs for 2 h, and the resulting mixtures were analyzed with UPLC-MS (for details including the UPLC-MS spectra, see Table S10 and Figures S17–S22 in the SI).
All protocols used for the evaluation of drug-like properties (ADME-To parameters) were described in our previous works.[58],[89] Precoated PAMPA Plate System Gentest was obtained from Corning, (Tewksbury, MA, USA). The metabolic stability assay was performed on human liver microsomes (HLMs, Sigma-Aldrich, St. Louis, MO, USA). The assays with microsomes were supported by MetaSite 6.0.1 software (Molecular Discovery Ltd. Hertfordshire, UK). To predict potential drug–drug interactions (DDIs) the influence on CYP3A4, CYP2D6, and CYP2C9 were carried with use of respective P450-Glo kit (Promega, Madison, WI, USA). The luminescence signal and absorbance were measured by using a microplate reader EnSpire PerkinElmer (Waltham, MA, USA). The LC/MS/MS analyses used in PAMPA and the assays with use of HLMs were obtained on Waters ACQUITY TQD system (Waters, Milford, CT, USA). […] Statistical significances and IC50 values were calculated by Graph Pad Prism 9 software.
Table S9. Differences in binding energies given for methods in gas and water environment.
Method gas [kcal/mol] water [kcal/mol]
Metabolic stability of compounds 11 and 36 in human liver microsomes (HLMs)
Table S10. The molecular masses and metabolic pathways of compounds 11 and 36 determined using human liver microsomes.
Substrate mass % mass of the Metabolic pathway*
(m/z) remaining metabolite
*most probable metabolic pathways were estimated by MS analyses supported by in silico prediction using MetaSite 6.0.1 and ADMET Predictor tools
Figure S17. The MetaSite 6.0.1. software prediction of the most probabl e sites of compounds’ 11 and 36 metabolism. The darker the red color - the higher the probability of being involved […]

With `NC(=O)N1CC=C(c2ccnc(NC(=O)C3CC3)c2)C1` [Compound 11, 3-(2-(Cyclopropanecarboxamido)pyridin-4-yl)-2,5-dihydro-1H-pyrrole-1-carboxamide] the IC50 at 24 h [1] was 45.8 ± 9.7 µM, the IC50 at 24 h [2] was 23.4 ± 1.7 µM and the “increase in cells' viability after okadaic acid” value (shortened to “increase in cells' viability”) (HT-22 cells; compound 1 μM) was “statistically significant effect”. The “increase in cells' viability” value (HT-22 cells; compound 10 μM) was “statistically significant effect” and the “% of the compound remaining after 2 h of incubation” value [3] was 100%.
In the case of `O=C(Nc1cc(-c2ccc(-c3ncon3)s2)ccn1)C1CC1` [Compound 36, N-(4-(5-(1,2,4-Oxadiazol-3-yl)thiophen-2-yl)pyridin-2-yl)cyclopropanecarboxamide], the IC50 at 24 h [1] is reported as > 100 µM, the IC50 at 24 h [2] is reported as 89.3 ± 4.9 µM and the “increase in cells' viability” value (HT-22 cells; compound 10 μM) is reported as “statistically significant effect”. For the same compound, the “cell viability after okadaic acid treatment” value (HT-22 cells; concentration not stated) was “restored cell viability”, the “% of the compound metabolized” value ([3]; 2 h) was 11% and the “% of the compound remaining after 2 h of incubation” value [3] was 88.61% and 88.6%.
